According to PMC7918775, “Quality by Design Applied Development of Immediate-Release Rabeprazole Sodium Dry-Coated Tablet” (Pharmaceutics, 2021):
Entries after “also recorded” stand apart in the source; their conditions may differ. Where two headings read alike, the source gives them in different places.

Key:
[1] = cited from earlier work
[2] = cited from earlier work; remark: listed apart in the source
[3] = Rabeprazole sodium/excipient compatibility study (appearance, impurities by HPLC); assay type: physicochemical; settings: 1:1 (w/w) mixtures, HPLC impurity test; threshold 3.5%
Experimental: (§1) The latter reflects the proportions of APIs in each commercialized tablet. The prepared samples were stored in a stability chamber for 4 weeks at room temperature of 25 ± 2 °C/ 60 ± 5% RH and under acceleration conditions of 40 ± 2 °C/ 75 ± 5% RH, respectively. […] If none were detected, an additional impurity test was performed to confirm compatibility.

[4] = API-API compatibility study (impurities by HPLC); assay type: physicochemical
Experimental: as §1

physchem = settings: water, thermodynamic from solid
Experimental: The solubility of each component in deionized water, solvents (ethanol, methanol), citric acid/sodium citrate buffer, and pH buffer was evaluated.
Each vial contained 10 mg rabeprazole sodium, and 200 µL of each solvent was slowly added. […] The solutions were filtered and then diluted 2000× to measure the quantity of rabeprazole sodium dissolved in the solution. Equilibrium or final rabeprazole sodium solubility was calculated from the HPLC peak. Peak area of sample solution × 100 × 100/Average of standard solution peak area ×1000

[5] = Stability of APIs in solution at various pH (content, appearance); assay type: physicochemical
[6] = Experimental: The solution was then stirred at 37 ± 2 °C for 1 h and filtered by polyvinylidene fluoride (PVDF) membrane filter. Next, 50 mL of the filtrate was obtained and titrated with hydrochloric acid with 0.1 M sodium hydroxide solution (pH measurement method) with an endpoint of pH 3.5.

SMILES: COCCCOc1ccnc(C[S+]([O-])c2nc3ccccc3[nH]2)c1C (stereo not drawn) [Rabeprazole sodium]
- Time to reach maximum plasma concentration ([1]; Adolescents, Tablets): 3.3 to 4.1 h
- Time to reach maximum plasma concentration ([1]; Adults, Capsule): 1 to 6.5 h
- Time to reach maximum plasma concentration ([1]; Adults, Tablets): 2 to 5 h
- Bioavailability ([1]; Tablets): ~52%
- Half-life (dose dependent) ([1]; adolescents): 33 to 60 min
- Half-life (dose dependent) ([1]; adults): 60 to 120 min
- Action onset time ([1]; in vivo): ≤ 1 h
- Duration ([1]; in vivo): 24 h
- Excretion: urine ([1]; in vivo): 90%
- Metabolism ([1]; in vivo): metabolized by CYP3A and 2C19 to inactive metabolites in the liver
- Protein binding rate ([1]; in vivo): 96.3%
- Delay of absorption by food ([1]; oral, with food): up to 4 h or more
- Absorption: Oral ([1]; oral): well absorbed within 1 h
- Half-life increase ([1]; patients with mild to moderate hepatic impairment): 2–3 times
- solubility ([2]; Water): 10 mg/mL (Water)
- Decomposition half-life ([2]; aqueous solutions with pH < 3.0): < 10 min
- pKa (Strongest Acidic) [2]: 9.35
- pKa (Strongest Basic) [2]: 4.24
- Concentration of decomposition products [3]: no decomposition products were formed
- Impurities, 4 Weeks ([4]; Accelerated Condition 40 °C/75% RH): 1.31%
- Impurities, 4 Weeks ([4]; Room Temperature 25 °C/60% RH): 0.07%
- Impurities, Initial ([4]; initial): 0.06%
- solubility (physchem): > 110 mg/mL
- Rabeprazole sodium content measured according to pH ([5]; pH 1.2 to 6.0): 30 to 60%
- Time stable in solution ([5]; pH 8.0): ~ 26 h
- Appearance in buffers ([5]; range of pH 1.2–12.0): changed in buffers with pH < 7.0; also recorded: transparent in buffers with pH > 8.0

SMILES: O=C([O-])O.[Na+] [Sodium bicarbonate]
- Duration ([1]; Intravenous (IV)): 0.13 to 0.167 h
- Onset time of action ([1]; Intravenous (IV)): fast
- Excretion: urine ([1]; in vivo): < 1%
- Duration ([1]; oral): 1 to 3 h
- Onset time of action ([1]; oral): 15 min
- PKa (carbonic acid) ([2]; carbonic acid): 6.351
- PKa [2]: 10.329
- Acid-neutralizing capacity (0.1 M HCl consumption) ([6]; 200 mg sodium bicarbonate): 38 mL
- Acid-neutralizing capacity (0.1 M HCl consumption) ([6]; 300 mg sodium bicarbonate): 42 mL
- Acid-neutralizing capacity (0.1 M HCl consumption) ([6]; 400 mg sodium bicarbonate): 45 mL
- Acid-neutralizing capacity (0.1 M HCl consumption) ([6]; 500 mg sodium bicarbonate): 49 mL
- Acid-neutralizing capacity (0.1 M HCl consumption) ([6]; 600 mg sodium bicarbonate): 57 mL
- Acid-neutralizing capacity (0.1 M HCl consumption) ([6]; 700 mg sodium bicarbonate): 68 mL
- Acid-neutralizing capacity (0.1 M HCl consumption) ([6]; 800 mg sodium bicarbonate): 79 mL
- Acid-neutralizing capacity (0.1 M HCl consumption) ([6]; 900 mg sodium bicarbonate): 84 mL
- Acid-neutralizing capacity (0.1 M HCl consumption) ([6]; 1000 mg sodium bicarbonate): 89 mL
